Measurements reported in ChEMBL document CHEMBL3301361, “Experimental in vitro DMPK and physicochemical data on a set of publicly disclosed compounds”.
≈ marks a conversion by molar mass, not a printed value. Where “and” joins values, the source holds several entries; their conditions need not be identical. Equal entries are not always repeated.

How the values were obtained:
physchem [1] = assay: physchem
physchem [2] = details: octan-1-ol/water
in vitro [3] = details: human
physchem [4] = assay: physchem; remark: listed apart in the source
in vitro [5] = details: human, plasma
in vitro [6] = details: SD, HW or BN, rat, plasma
in vitro [7] = details: Beagle, dog, plasma
in vitro [8] = details: Dunkin Hartley, guinea pig, plasma
physchem [9] = details: pH 7.4 buffer
[10] = buffer, pH 7.4
in vitro [11] = details: hepatocytes
physchem [12] = assay: physchem; remark: listed apart in the source
in vitro [13] = details: mouse, plasma
in vitro [14] = details: human, hepatocytes

Structure (SMILES)	pKa (physchem [1])	pKa (physchem [4])	LogD7.4 [10]	fraction unbound at 5 h (in vitro [5]; PPB)	further results
O=C(O)C(c1ccccc1)N1CCC(N2CCC(Oc3ccc(Cl)c(Cl)c3)CC2)CC1 (configuration not stated)	9.1	6.5	–	–	logD (physchem [2]; pH 7.4, LogD7.4): 2.23; microsomal CLint (in vitro [3]; liver microsomes): 6 µL/min/mg
CN1CCN(C2=Nc3cc(Cl)ccc3Nc3ccccc32)CC1 [CLOZAPINE]	–	3.99	–	–	logD (physchem [2]; pH 7.4): 3.08; fraction unbound at 5 h (in vitro [5]): 0.0521; fraction unbound at 5 h (in vitro [6]): 0.0647; fraction unbound at 5 h (in vitro [7]): 0.0736; fraction unbound at 5 h (in vitro [8]): 0.0872
Cc1ccccc1C[C@@H](C(=O)O)N1CCC(CN2CCC(Oc3ccc(Cl)c(Cl)c3)CC2)CC1	9.2	7.55	–	–	solubility thermodynamic (physchem [9]): 12.3 µM (≈ 6.22 µg/mL); microsomal CLint (in vitro [3]; liver microsomes): < 3 µL/min/mg
CC(CCc1ccccc1)NCC(O)c1ccc(O)c(C(N)=O)c1 (configuration not stated) [LABETALOL]	–	–	1.06	0.376	–
Clc1ccc(COC(Cn2ccnc2)c2ccc(Cl)cc2Cl)cc1 (configuration not stated) [ECONAZOLE]	–	–	2.54	–	–
O=C(O)[C@@H](Cc1ccccc1)N1CCC(CN2CCC(Oc3ccc(Cl)c(Cl)c3)CC2)CC1	9.3	7	–	0.314	microsomal CLint (in vitro [3]; liver microsomes): < 3 µL/min/mg
CS(=O)(=O)c1ccc(-c2cc(Cl)ccc2OCC(=O)O)c(Cl)c1	–	–	-0.75	0.0251	fraction unbound at 5 h (in vitro [6]): 0.035
CC1(C)NC(=O)N(c2ccc([N+](=O)[O-])c(C(F)(F)F)c2)C1=O [NILUTAMIDE]	–	–	1.74	–	solubility thermodynamic (physchem [9]): 234 µM (≈ 74.4 µg/mL)
O=c1[nH]c2c(O)ccc([C@@H](O)CNCCc3cccc(CN4CCCC4)c3)c2s1	–	–	-0.28	–	–
O=C([C@H]1CCCCN1)N1CCN(c2nc(NCc3ccc(Cl)cc3Cl)c3cccnc3n2)CC1	9	5.7	–	–	logD (physchem [2]; pH 7.4, LogD7.4): 2.27; microsomal CLint (in vitro [3]; liver microsomes): 24 µL/min/mg; hepatocyte CLint (in vitro [11]): 9.88 µL/min/1e6 cells
COc1cc(N)c(Cl)cc1C(=O)NC1CCN(CCCOc2ccc(F)cc2)CC1OC (configuration not stated) [CISAPRIDE]	–	–	3.56	–	–
CC(CN(C)C)CN1c2ccccc2CCc2ccccc21 (configuration not stated) [TRIMIPRAMINE]	–	–	2.95	0.069	–
COc1ccc(CCN2CCC(Nc3nc4ccccc4n3Cc3ccc(F)cc3)CC2)cc1 [ASTEMIZOLE]	9.62	6.33	–	0.0262	solubility thermodynamic (physchem [9]): 5.6 µM (≈ 2.57 µg/mL); microsomal CLint (in vitro [3]; liver microsomes): 66 µL/min/mg
O=C(O)c1cccc(CN2CCC(CN3CCC(Oc4ccc(Cl)c(Cl)c4)CC3)CC2)c1	9.6	7.7	–	–	microsomal CLint (in vitro [3]; microsomes): < 3 µL/min/mg; pKa (physchem [12]): 3.5
CN(C)CCn1nnnc1SCC1=C(C(=O)O)N2C(=O)[C@@H](NC(=O)Cc3csc(N)n3)[C@H]2SC1 [CEFOTIAM]	8.18	4.61	–	–	pKa (physchem [12]): 2.41
CN1CCN(CCCN2c3ccccc3Sc3ccc(Cl)cc32)CC1 [PROCHLORPERAZINE]	–	–	3.92	–	–
CN1CCC[C@@H]1CCO[C@](C)(c1ccccc1)c1ccc(Cl)cc1 [CLEMASTINE]	–	–	3.48	–	logD (physchem [2]; pH 7.4, LogD7.4): 3.04
NC(=O)N1c2ccccc2CC(=O)c2ccccc21 [OXCARBAZEPINE]	–	–	1.28	–	–
O=C(O)[C@H](Cc1ccccc1)N1CCC(CN2CCC(Oc3ccc(Cl)c(Cl)c3)CC2)CC1	9.25	7.75	–	–	solubility thermodynamic (physchem [9]): 13.5 µM (≈ 6.63 µg/mL); fraction unbound at 5 h (in vitro [6]): 0.183; fraction unbound at 5 h (in vitro [7]): 0.11; fraction unbound at 5 h (in vitro [13]): 0.154; fraction unbound at 5 h (in vitro [8]): 0.58; microsomal CLint (in vitro [3]; liver microsomes): < 3 µL/min/mg; pKa (physchem [12]): 3.1
CC(C)(C)NC[C@H](O)COc1nsnc1N1CCOCC1 [TIMOLOL]	–	–	-0.35 and -0.22	0.597	hepatocyte CLint (in vitro [11]): > 150 µL/min/1e6 cells; hepatocyte CLint (in vitro [14]): 4.57 µL/min/1e6 cells
O=c1c2ccccc2[se]n1-c1ccccc1 [EBSELEN]	–	–	3.31	–	–
O=C1CC2(CCCC2)CC(=O)N1CCCCN1CCN(c2ncccn2)CC1 [BUSPIRONE]	7.61	5.48	–	–	solubility thermodynamic (physchem [9]): 1450 µM (≈ 557 µg/mL); microsomal CLint (in vitro [3]; liver microsomes): 116 µL/min/mg; hepatocyte CLint (in vitro [14]): 38.9 µL/min/1e6 cells

Structure (SMILES)	pKa (physchem [1])	pKa (physchem [4])	LogD7.4 [10]	fraction unbound at 5 h (in vitro [5]; PPB)	further results
CCOC(=O)C1(c2ccccc2)CCN(C)CC1 [MEPERIDINE]	–	–	1.4	–	–
CCS(=O)(=O)c1ccc(-c2cc(Cl)ccc2OCC(=O)O)cc1	–	–	-0.78	0.0274	microsomal CLint (in vitro [3]; liver microsomes): < 3 µL/min/mg
CCN(CC)c1ccc(-c2nn3c(-c4n[nH]c5c4CCC5)nnc3s2)cc1	–	–	3.37	–	–
CS(=O)(=O)c1ccc(-c2cc(C(F)(F)F)ccc2OCC(=O)O)c(Cl)c1	–	–	-0.52	0.0418	fraction unbound at 5 h (in vitro [6]): 0.0499
CS(=O)(=O)c1ccc(-c2cc(C(F)(F)F)ccc2OCC(=O)O)cc1	–	–	-0.87	–	microsomal CLint (in vitro [3]; liver microsomes): < 3 µL/min/mg
O=C(O)c1ccccc1N1CCC(CN2CCC(Oc3ccc(Cl)c(Cl)c3)CC2)CC1	8.9	7.7	–	–	microsomal CLint (in vitro [3]; liver microsomes): 8 µL/min/mg; pKa (physchem [12]): 3.2
N#Cc1ccc(C[C@@H](C(=O)O)N2CCC(CN3CCC(Oc4ccc(Cl)c(Cl)c4)CC3)CC2)cc1	8.9	7	–	0.0521	solubility thermodynamic (physchem [9]): 53.7 µM (≈ 27.7 µg/mL); fraction unbound at 5 h (in vitro [6]): 0.0968; fraction unbound at 5 h (in vitro [7]): 0.166; fraction unbound at 5 h (in vitro [13]): 0.197
O=C(NCC12CC3CC(CC(C3)C1)C2)c1cc(CN2CC3CNCC(C2)O3)ccc1Cl	10	9	–	0.0467	logD (physchem [2]; pH 7.4, LogD7.4): 1.55; microsomal CLint (in vitro [3]; microsomes): 15 µL/min/mg; hepatocyte CLint (in vitro [11]): 9 µL/min/1e6 cells
CC(C)N1CCN(Cc2cnc(-c3cc(-c4cccc5[nH]ccc45)cc4[nH]ncc34)o2)CC1 [NEMIRALISIB]	8.26	2.4	–	0.03	logD (physchem [2]; pH 7.4, LogD7.4): 3.49; fraction unbound at 5 h (in vitro [6]): 0.0358
COc1ccnc(CSc2nc3ccccc3[nH]2)c1	5.3	3	–	–	logD (physchem [2]; pH 7.4, LogD7.4): 2.89; microsomal CLint (in vitro [3]; liver microsomes): 86 µL/min/mg; hepatocyte CLint (in vitro [11]): > 150 µL/min/1e6 cells
CC(C)/N=c1\cc2n(-c3ccc(Cl)cc3)c3ccccc3nc-2cc1Nc1ccc(Cl)cc1 [CLOFAZIMINE]	8.8	–	3.17	–	solubility thermodynamic (physchem [9]): 0.7 µM (≈ 0.331 µg/mL); fraction unbound at 5 h (in vitro [6]): 0.0037
Clc1ccc2c(c1)CCc1cccnc1C2=C1CCNCC1 [DESLORATADINE]	10	4.57	–	–	logD (physchem [2]; pH 7.4): 1.48; fraction unbound at 5 h (in vitro [6]): 0.145; fraction unbound at 5 h (in vitro [13]): 0.183; hepatocyte CLint (in vitro [11]): 26.9 µL/min/1e6 cells
COc1cc2ncnc(Nc3ccc(F)c(Cl)c3)c2cc1NC(=O)/C=C/CN1CCCCC1 [DACOMITINIB ANHYDROUS]	9.36	5.2	–	0.0179	logD (physchem [2]; pH 7.4, LogD7.4): 4.1; solubility thermodynamic (physchem [9]): 6.8 µM (≈ 3.2 µg/mL); hepatocyte CLint (in vitro [11]): 9.77 µL/min/1e6 cells; hepatocyte CLint (in vitro [14]): < 3 µL/min/1e6 cells
CCS(=O)(=O)c1ccc(-c2cc(Cl)ccc2OCC(=O)O)c(F)c1	–	–	-0.92	0.0488	fraction unbound at 5 h (in vitro [6]): 0.0568; fraction unbound at 5 h (in vitro [7]): 0.0084; microsomal CLint (in vitro [3]; microsomes): < 3 µL/min/mg; hepatocyte CLint (in vitro [11]): 4.24 µL/min/1e6 cells; hepatocyte CLint (in vitro [14]): < 3 µL/min/1e6 cells; pKa (physchem [12]): 3
CN(c1ccc(-c2cc(F)ccc2OCC(=O)O)c(Cl)c1)S(C)(=O)=O	–	–	-1.17	–	–
CN1CCN(CCCN2c3ccccc3Sc3ccc(C(F)(F)F)cc32)CC1 [TRIFLUOPERAZINE]	–	–	4.31	0.0081	fraction unbound at 5 h (in vitro [6]): 0.007
CN1Cc2c(N)cccc2C(c2ccccc2)C1 (configuration not stated) [NOMIFENSINE]	–	–	2.11	–	logD (physchem [2]; pH 7.4, LogD7.4): 2.08
O=C(O)C(c1ccccc1)N1CCC(CN2CCC(Oc3ccc(Cl)c(Cl)c3)CC2)CC1 (configuration not stated)	9.6	7.7	–	–	logD (physchem [2]; pH 7.4, LogD7.4): 2.17; microsomal CLint (in vitro [3]; microsomes): < 3 µL/min/mg; pKa (physchem [12]): 3
CCS(=O)(=O)c1cccc(-c2cc(C(F)(F)F)ccc2OCC(=O)O)c1	–	–	-0.66	–	–
CCS(=O)(=O)c1ccc(-c2cc(Cl)ccc2OCC(=O)O)c(C)c1	–	–	-0.65	–	–
Cc1cc(N(C)S(C)(=O)=O)ccc1-c1cc(C(F)(F)F)ccc1OCC(=O)O	–	–	-0.59	–	microsomal CLint (in vitro [3]; liver microsomes): < 3 µL/min/mg
